Drawing on BindingDB's records for patent US11111233 (Shenzhen Targetrx, 2021), this text covers IC50 for 2 compounds.

Assay [1] deals with Epidermal growth factor receptor [T790M,L858R] (Homo sapiens, UniProt P00533, L858R/T790M). The assay can be described thus: Kinase Inhibition Assay.
Procedure: (§1) Then, it was diluted in DMSO with a 3-fold series gradient dilution for 10 times. […] The corresponding substrate and ATP were added and reacted at room temperature for 20 minutes (in which a negative and a positive control were set: the negative control is blank and the positive control is erlotinib). […] The inhibitions of the enzyme activity by the compounds at different concentrations were then fitted using Graphpad 5.0 software according to the four-parameter equation, and the IC50 values were calculated.
For assay [2], the target named is Epidermal growth factor receptor (Homo sapiens, UniProt P00533). The assay can be described thus: Kinase Inhibition Assay.
Procedure: as §1

A value given as a limit tells only on which side of the number the result lay.

Chain of Epidermal growth factor receptor [T790M,L858R] (P00533 25-1210 T790M/L858R limits assumed): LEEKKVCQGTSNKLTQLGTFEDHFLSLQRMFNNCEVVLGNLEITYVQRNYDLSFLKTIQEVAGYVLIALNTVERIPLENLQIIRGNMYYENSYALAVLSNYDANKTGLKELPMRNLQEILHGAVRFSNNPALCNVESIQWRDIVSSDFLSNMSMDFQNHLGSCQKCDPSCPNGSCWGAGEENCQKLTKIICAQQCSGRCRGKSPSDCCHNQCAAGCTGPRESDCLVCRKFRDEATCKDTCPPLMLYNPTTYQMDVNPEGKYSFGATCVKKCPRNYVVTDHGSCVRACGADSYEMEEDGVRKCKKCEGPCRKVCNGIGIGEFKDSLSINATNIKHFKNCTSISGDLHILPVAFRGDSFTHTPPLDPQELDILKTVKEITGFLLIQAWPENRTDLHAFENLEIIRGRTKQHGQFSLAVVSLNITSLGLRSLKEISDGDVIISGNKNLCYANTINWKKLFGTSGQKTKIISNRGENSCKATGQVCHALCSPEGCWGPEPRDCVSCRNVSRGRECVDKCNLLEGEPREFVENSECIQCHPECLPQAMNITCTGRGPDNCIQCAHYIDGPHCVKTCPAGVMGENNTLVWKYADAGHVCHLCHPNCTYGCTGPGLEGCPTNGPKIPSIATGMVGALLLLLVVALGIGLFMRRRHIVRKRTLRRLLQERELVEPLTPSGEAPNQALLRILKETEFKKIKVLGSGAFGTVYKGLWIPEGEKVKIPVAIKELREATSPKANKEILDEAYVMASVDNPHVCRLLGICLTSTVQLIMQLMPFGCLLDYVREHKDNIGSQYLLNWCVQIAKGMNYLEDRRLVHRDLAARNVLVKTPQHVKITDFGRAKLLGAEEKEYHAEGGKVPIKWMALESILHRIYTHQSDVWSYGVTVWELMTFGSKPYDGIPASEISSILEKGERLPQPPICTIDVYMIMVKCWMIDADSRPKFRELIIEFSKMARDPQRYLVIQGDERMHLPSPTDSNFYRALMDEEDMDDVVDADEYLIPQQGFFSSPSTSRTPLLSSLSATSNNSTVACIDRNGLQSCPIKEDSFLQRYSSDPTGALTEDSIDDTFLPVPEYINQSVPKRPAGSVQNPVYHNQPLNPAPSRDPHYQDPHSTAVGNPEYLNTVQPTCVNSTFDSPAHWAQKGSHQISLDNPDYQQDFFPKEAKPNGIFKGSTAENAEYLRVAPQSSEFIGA
Chain of Epidermal growth factor receptor (P00533 whole entry): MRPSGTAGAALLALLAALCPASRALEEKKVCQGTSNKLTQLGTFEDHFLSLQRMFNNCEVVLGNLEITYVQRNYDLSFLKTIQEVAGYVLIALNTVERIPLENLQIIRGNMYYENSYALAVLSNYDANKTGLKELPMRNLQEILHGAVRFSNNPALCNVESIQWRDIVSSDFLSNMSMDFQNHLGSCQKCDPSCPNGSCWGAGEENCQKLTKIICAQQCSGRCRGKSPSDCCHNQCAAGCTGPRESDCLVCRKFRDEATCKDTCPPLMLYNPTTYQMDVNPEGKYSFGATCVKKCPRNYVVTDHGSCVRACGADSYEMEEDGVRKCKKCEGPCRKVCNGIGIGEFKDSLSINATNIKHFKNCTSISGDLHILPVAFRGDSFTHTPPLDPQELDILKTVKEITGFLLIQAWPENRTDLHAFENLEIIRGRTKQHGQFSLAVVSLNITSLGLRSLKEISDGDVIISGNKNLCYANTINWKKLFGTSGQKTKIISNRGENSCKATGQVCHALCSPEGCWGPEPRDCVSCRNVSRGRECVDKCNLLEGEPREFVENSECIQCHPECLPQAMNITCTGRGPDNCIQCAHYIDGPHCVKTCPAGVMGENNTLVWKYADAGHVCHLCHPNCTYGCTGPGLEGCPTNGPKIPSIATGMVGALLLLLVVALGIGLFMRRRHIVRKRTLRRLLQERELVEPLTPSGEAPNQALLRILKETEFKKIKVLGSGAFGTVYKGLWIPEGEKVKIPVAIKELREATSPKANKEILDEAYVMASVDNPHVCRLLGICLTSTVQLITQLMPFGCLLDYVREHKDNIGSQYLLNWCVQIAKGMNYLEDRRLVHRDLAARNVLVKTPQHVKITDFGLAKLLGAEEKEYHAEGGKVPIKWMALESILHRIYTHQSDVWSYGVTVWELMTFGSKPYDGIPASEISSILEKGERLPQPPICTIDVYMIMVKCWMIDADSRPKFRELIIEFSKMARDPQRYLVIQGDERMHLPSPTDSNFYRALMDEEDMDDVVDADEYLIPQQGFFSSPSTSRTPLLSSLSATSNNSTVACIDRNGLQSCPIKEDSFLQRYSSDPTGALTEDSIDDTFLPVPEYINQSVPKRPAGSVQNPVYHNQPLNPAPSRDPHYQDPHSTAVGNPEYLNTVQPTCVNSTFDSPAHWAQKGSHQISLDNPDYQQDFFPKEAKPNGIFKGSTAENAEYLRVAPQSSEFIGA

In the case of `C=CC(=O)Nc1cc(Nc2nccc(-c3cc(F)c4nc(C)n(C(C)C)c4c3)n2)c(OC)cc1OCCN(C)C` [US11111233, Example 12], in assay [1], the IC50 (in general, the concentration that gives 50% inhibition) was < 1 nM.

Turning to `C=CC(=O)Nc1cc(Nc2nccc(-c3cc(F)c4nc(C)n(C(C)C)c4c3)n2)c(OC)cc1N1CCOCC1` [US11111233, Example 16], the IC50 in assay [2] is > 100 nM.
